The text below walks through data of patent publication US10544155B2, “Spirocyclic quinolizine derivatives useful as HIV integrase inhibitors” (MERCK SHARP & DOHME CORP., priority 2015, dated 2020).

For the assay, the system named is HIV-1 (NL4-3 strain). Kind of assay: Assay for inhibition of HIV replication (MT4-gag-GFP reporter cell line, wild type cell assay, Viking). The format is cell-based. The conditions noted are these: IP from 4-parameter dose response curve. The protocol: This assay is a kinetic assay that employs a reporter cell line (MT4-gag-GFP) to quantify the number of new cells infected in each round of replication.
MT4-GFP cells (250,000 cells/ml) were bulk-infected with HIV-1 (NL4-3 strain) at low multiplicity of infection (MOI) in RPMI+10% FBS for 24 hours. Cells were then washed once in RPMI+10% FBS and resuspended in RPMI+0% or 10% or 100% normal human serum (NHS). Test compounds were serial-diluted in DMSO on ECHO. The infected MT4-GFP cells were added to a 384-well poly-D-lysine coated black plate with clear bottom in which the diluted test compounds were placed. The cells were seeded at 8,000 cells per well and the final DMSO concentration was 0.4%. The infected cells (Green GFP cells) were quantified at both 24 and 48 hours post incubation using Acumen eX3. Viral reproductive ratio (R0) was determined using the number of infected cells at 48 hours divided by the number of infected cells at 24 hours. Percent viral growth inhibition was calculated by [1−(R−Rtripledrug)/(RDMSO−Rtripledrug)]*100. Compound potency IP or IC50 was determined by a 4-parameter dose response curve analysis.

Setting [1] is: MT4-GFP cells infected with HIV-1 NL4-3, 0% normal human serum, read-out: WILD TYPE CELL ASSAY Viking IP (0% NHS).
[2] abbreviates: MT4-GFP cells infected with HIV-1 NL4-3, 100% normal human serum, read-out: WILD TYPE CELL ASSAY Viking IP (100% NHS).
Setting [3] is: Human immunodeficiency virus 1, NL43, MT4-GFP cells infected with HIV-1 NL4-3, 0% normal human serum, read-out: WILD TYPE CELL ASSAY Viking IP (0% NHS).
[4] abbreviates: Human immunodeficiency virus 1, NL43, MT4-GFP cells infected with HIV-1 NL4-3, 100% normal human serum, read-out: WILD TYPE CELL ASSAY Viking IP (100% NHS).

SMILES strings stand for the structures. Where two headings read alike, the source gives them in different places.

As to `CC1COC2(C1)Cn1cc(C(=O)NCc3ccc(F)cc3F)c(=O)c(O)c1C(=O)C2(C)C` (stereo not drawn) [Compound 17], the IC50 was determined as 3.1 nM under setting [1] and 307 nM under setting [2].
Consider `CC1COC2(C1)Cn1cc(C(=O)NCc3ccc(F)cc3F)c(=O)c(O)c1C(=O)C2(C)C` (stereo not drawn) [Compound 16], for which the IC50 was 3.1 nM under setting [3] and 634 nM under setting [2].
With `CC1COC2(C1)Cn1cc(C(=O)NCc3ccc(F)cc3F)c(=O)c(O)c1C(=O)C2(C)C` (stereo not drawn) [Compound 19], the IC50 reads like this: under setting [1], 2.6 nM; under setting [2], 453 nM.
For `CC1(C)C(=O)c2c(O)c(=O)c(C(=O)NCc3ccc(F)cc3F)cn2CC12CCCO2` (single isomer, unassigned) [Compound 2] the same measures were 1.2 nM and 2300 nM.
For `CC1(C)C(=O)c2c(O)c(=O)c(C(=O)NCc3ccc(F)c(Cl)c3F)cn2CC12CCCO2` (single isomer, unassigned) [Compound 8], the IC50 runs as follows: under setting [3], 1.7 nM; under setting [4], 585 nM.
As for `CC1COC2(C1)Cn1cc(-c3nnc(Cc4ccc(F)cc4F)s3)c(=O)c(O)c1C(=O)C2(C)C` (single isomer, unassigned) [Compound 24], the IC50 came out at 2.9 nM under setting [3] and 354 nM under setting [2].
`CC1COC2(C1)Cn1cc(-c3nnc(Cc4ccc(F)cc4F)s3)c(=O)c(O)c1C(=O)C2(C)C` (single isomer, unassigned) [Compound 25]: the IC50 under setting [1] stood at 3.8 nM and the IC50 under setting [2] worked out at 1120 nM.
For `CC1(C)C(=O)c2c(O)c(=O)c(C(=O)NCc3ccc(F)cc3F)cn2CC12CCCO2` (single isomer, unassigned) [Compound 1], the IC50 runs as follows: under setting [1], 0.9 nM; under setting [2], 175 nM.
As for `CC1COC2(C1)Cn1cc(C(=O)NCc3cccc(Cl)c3F)c(=O)c(O)c1C(=O)C2(C)C` (single isomer, unassigned) [Compound 23], the IC50 by setting is: under setting [1], 1 nM; under setting [2], 717 nM.
Consider `CC1(C)C(=O)c2c(O)c(=O)c(C(=O)NCc3cccc(Cl)c3F)cn2CC12CCCO2` (single isomer, unassigned) [Compound 6], for which the IC50 is, setting by setting: under setting [3], 1.8 nM; under setting [4], 581 nM.
The matching figures for `CC1(C)C(=O)c2c(O)c(=O)c(C(=O)NCc3ccc(F)cc3)cn2CC12CCCO2` (stereo not drawn) [Compound 11]: 7.8 nM and 4920 nM.
For `CC1(C)C(=O)c2c(O)c(=O)c(C(=O)NCc3ccc(F)cc3)cn2CC12CCCO2` (single isomer, unassigned) [Compound 10] the same measures were 7 nM and 425 nM.
For `CC1n2cc(C(=O)NCc3ccc(F)cc3F)c(=O)c(O)c2C(=O)C(C)(C)C12CCCO2` (stereo not drawn) [Compound 15], the IC50 runs as follows: under setting [3], 2.4 nM; under setting [4], 149 nM.
The matching figures for `CC1(C)C(=O)c2c(O)c(=O)c(C(=O)NCc3cccc(Cl)c3F)cn2CC12CCCO2` (stereo not drawn) [Compound 7]: 1.8 nM and > 8000 nM.
Turning to `CC1COC2(C1)Cn1cc(C(=O)NCc3cccc(Cl)c3F)c(=O)c(O)c1C(=O)C2(C)C` (single isomer, unassigned) [Compound 21], the IC50 came to 1.3 nM under setting [1] and 226 nM under setting [2].
With `CC1(C)C(=O)c2c(O)c(=O)c(C(=O)NCc3ccc(F)c(Cl)c3F)cn2CC12CCCO2` (stereo not drawn) [Compound 9], the IC50 under setting [3] is 1.7 nM and the IC50 under setting [4] was 6670 nM.
With `CC1COC2(C1)Cn1cc(C(=O)NCc3cccc(Cl)c3F)c(=O)c(O)c1C(=O)C2(C)C` (single isomer, unassigned) [Compound 22], the IC50 was 0.8 nM under setting [1] and 1540 nM under setting [2].
As for `CC1(C)C(=O)c2c(O)c(=O)c(-c3nnc(Cc4ccc(F)cc4F)s3)cn2CC12CCCO2` (stereo not drawn) [Compound 12], the IC50 under setting [1] worked out at 5 nM and the IC50 under setting [2] was > 8000 nM.
The matching figures for `CC1(C)C(=O)c2c(O)c(=O)c(-c3nnc(Cc4ccc(F)cc4F)s3)cn2CC12CCCO2` (stereo not drawn) [Compound 13]: 5.4 nM and 585 nM.
The matching figures for `CC1COC2(C1)Cn1cc(C(=O)NCc3cccc(Cl)c3F)c(=O)c(O)c1C(=O)C2(C)C` (single isomer, unassigned) [Compound 20]: 2 nM and 1160 nM.
Take `CC1n2cc(C(=O)NCc3ccc(F)cc3F)c(=O)c(O)c2C(=O)C(C)(C)C12CCCO2` (single isomer, unassigned) [Compound 14]: the IC50 runs as follows: under setting [3], 2 nM; under setting [4], 3300 nM.
In the case of `CC1(C)C(=O)c2c(O)c(=O)c(C(=O)NCc3ccc(F)cc3F)cn2CC12CCCCO2` (stereo not drawn) [Compound 3], the IC50 is 4.2 nM under setting [1] and 2540 nM under setting [2].
In the case of `CC1COC2(C1)Cn1cc(C(=O)NCc3ccc(F)cc3F)c(=O)c(O)c1C(=O)C2(C)C` (stereo not drawn) [Compound 18], the IC50 under setting [1] came out at 2.7 nM and the IC50 under setting [2] is 855 nM.
For `C/C=C1\C(=O)c2c(O)c(=O)c(C(=O)NCc3ccc(F)cc3F)cn2CC12CCOCC2` [Compound 5] the same measures were 3.9 nM and 592 nM.
